{"source": "ChEMBL document CHEMBL1811886", "about": "(J Med Chem, 2011)", "key": {"[1]": {"assay": "Inhibition of PDE3"}, "[2]": {"tested_on": "Salmonella typhimurium", "assay": "Mutagenic activity in Salmonella Typhimurium by Ames test", "format": "toxicity, organism-based", "conditions": "salmonella enterica subsp. enterica serovar typhimurium"}, "[3]": {"tested_on": "Rattus norvegicus", "assay": "Toxicity in rat central nervous system assessed as side effects up to 100 mg/kg, po measured from 15 mins through 6 hrs by Irwin test", "format": "organism-based", "parameters": "dose 100 mg/kg, route oral", "conditions": "in vivo"}, "[4]": {"assay": "Mutagenic activity in human peripheral blood lymphocytes by micronucleus test in presence metabolic activation", "format": "toxicity, cell-based", "conditions": "lymphocyte"}, "[5]": {"tested_on": "Rhesus monkey", "assay": "Toxicity in monkey up to 28 days", "format": "organism-based, Macaca mulatta", "conditions": "in vivo, 672 h"}, "[6]": {"biological_target": "T1, Histamine H3 receptor (Rattus norvegicus, UniProt Q9QYN8)", "T1 sequence (Q9QYN8 whole entry)": "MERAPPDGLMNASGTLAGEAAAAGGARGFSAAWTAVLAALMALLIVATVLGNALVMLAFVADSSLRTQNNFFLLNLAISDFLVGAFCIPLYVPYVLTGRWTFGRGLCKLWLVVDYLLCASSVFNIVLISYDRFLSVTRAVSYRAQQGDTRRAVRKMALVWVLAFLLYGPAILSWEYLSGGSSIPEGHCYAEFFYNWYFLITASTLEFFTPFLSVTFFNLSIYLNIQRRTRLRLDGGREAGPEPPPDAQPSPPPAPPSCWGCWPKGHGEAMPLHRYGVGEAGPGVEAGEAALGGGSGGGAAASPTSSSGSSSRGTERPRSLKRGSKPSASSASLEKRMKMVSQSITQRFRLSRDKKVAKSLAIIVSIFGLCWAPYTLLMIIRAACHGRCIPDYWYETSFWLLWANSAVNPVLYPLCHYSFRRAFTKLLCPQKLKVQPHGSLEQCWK", "assay": "Displacement of [3H]NAMH from rat histamine H3 receptor expressed in CHO cells", "format": "cell-based"}, "[7]": {"tested_on": "Rhesus monkey", "assay": "Toxicity in monkey assessed as changes in respiratory function after 28 days", "format": "organism-based, Macaca mulatta", "conditions": "in vivo, 672 h"}, "[8]": {"biological_target": "T2, Sodium-dependent noradrenaline transporter (Homo sapiens, UniProt P23975)", "T2 sequence (P23975 whole entry)": "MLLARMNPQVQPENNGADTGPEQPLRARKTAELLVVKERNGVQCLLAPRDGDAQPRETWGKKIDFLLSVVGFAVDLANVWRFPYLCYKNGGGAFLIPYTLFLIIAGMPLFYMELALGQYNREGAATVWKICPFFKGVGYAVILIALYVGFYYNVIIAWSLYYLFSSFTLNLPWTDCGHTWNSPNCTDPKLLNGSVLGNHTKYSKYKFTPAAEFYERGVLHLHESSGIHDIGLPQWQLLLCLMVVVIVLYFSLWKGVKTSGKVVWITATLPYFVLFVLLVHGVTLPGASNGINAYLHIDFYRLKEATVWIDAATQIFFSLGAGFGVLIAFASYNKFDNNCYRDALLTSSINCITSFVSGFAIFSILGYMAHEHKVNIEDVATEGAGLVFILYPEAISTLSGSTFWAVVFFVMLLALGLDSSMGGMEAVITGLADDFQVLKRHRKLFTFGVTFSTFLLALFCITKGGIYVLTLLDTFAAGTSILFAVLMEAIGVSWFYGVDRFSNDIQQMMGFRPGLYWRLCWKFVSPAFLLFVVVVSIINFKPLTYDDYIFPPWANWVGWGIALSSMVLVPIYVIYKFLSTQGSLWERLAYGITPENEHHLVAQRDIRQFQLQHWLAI", "assay": "Inhibition of norepinephrine transporter"}, "[9]": {"biological_target": "T3, Histamine H3 receptor (Homo sapiens, UniProt Q9Y5N1)", "T3 sequence (Q9Y5N1 whole entry)": "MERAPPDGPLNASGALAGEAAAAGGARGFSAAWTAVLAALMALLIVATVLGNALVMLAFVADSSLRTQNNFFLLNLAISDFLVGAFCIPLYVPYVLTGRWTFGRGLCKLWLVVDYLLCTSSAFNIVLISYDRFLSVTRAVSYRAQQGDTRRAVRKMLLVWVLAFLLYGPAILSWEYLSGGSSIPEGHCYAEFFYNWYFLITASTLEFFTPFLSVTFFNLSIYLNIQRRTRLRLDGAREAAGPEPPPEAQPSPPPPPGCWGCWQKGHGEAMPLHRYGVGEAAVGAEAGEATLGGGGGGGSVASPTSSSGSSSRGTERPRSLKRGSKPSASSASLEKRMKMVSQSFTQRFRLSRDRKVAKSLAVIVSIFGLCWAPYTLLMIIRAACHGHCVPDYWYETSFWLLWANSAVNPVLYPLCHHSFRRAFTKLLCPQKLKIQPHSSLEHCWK", "assay": "Inverse agonist activity at human histamine H3 receptor assessed as inhibition of R-alpha-methylhistamine induced [35S]GTPgammaS binding", "format": "functional"}, "[10]": {"tested_on": "Rattus norvegicus", "assay": "Toxicity in rat central nervous system assessed as changes in behavioral response at 10 to 300 mg/kg, po measured from 15 mins through 6 hrs by Irwin test", "format": "organism-based", "parameters": "dose 10-300 mg/kg, route oral", "conditions": "in vivo"}, "[11]": {"biological_target": "T1, Histamine H3 receptor", "assay": "Antagonist activity at histamine H3 receptor in rat cortical membrane", "format": "functional, cell membranes"}, "[12]": {"assay": "Dissociation constant, pKa of the compound", "format": "physicochemical"}, "[13]": {"assay": "Aqueous solubility of the compound at pH 2", "format": "physicochemical"}, "[14]": {"species": "Rattus norvegicus", "assay": "Toxicity in rat up to 28 days", "format": "organism-based", "conditions": "in vivo, 672 h"}, "[15]": {"assay": "Aqueous solubility of the compound at pH 7.4", "format": "physicochemical"}, "[16]": {"biological_target": "T4, Sodium-dependent dopamine transporter (Homo sapiens, UniProt Q01959)", "T4 sequence (Q01959 whole entry)": "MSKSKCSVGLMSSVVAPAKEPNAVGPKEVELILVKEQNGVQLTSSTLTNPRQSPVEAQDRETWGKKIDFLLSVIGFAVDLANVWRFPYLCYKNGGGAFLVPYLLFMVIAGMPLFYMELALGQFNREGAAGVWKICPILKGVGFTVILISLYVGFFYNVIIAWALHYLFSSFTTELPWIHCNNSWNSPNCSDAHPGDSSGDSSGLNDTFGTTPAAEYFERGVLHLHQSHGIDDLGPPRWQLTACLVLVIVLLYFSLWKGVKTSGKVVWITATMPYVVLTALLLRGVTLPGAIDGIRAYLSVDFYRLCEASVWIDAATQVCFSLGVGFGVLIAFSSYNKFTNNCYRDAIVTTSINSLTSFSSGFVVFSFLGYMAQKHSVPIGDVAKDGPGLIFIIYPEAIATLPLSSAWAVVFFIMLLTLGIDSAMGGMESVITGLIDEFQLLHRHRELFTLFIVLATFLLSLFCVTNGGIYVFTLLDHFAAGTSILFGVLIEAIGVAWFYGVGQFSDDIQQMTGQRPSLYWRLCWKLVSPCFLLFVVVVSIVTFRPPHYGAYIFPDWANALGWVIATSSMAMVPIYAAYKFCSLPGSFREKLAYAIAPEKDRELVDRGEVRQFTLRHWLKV", "assay": "Inhibition of recombinant human dopamine transporter"}, "[17]": {"tested_on": "Rhesus monkey", "assay": "Toxicity in monkey assessed as changes in cardiovascular function after 28 days", "format": "organism-based, Macaca mulatta, Heart", "conditions": "in vivo, 672 h"}, "[18]": {"assay": "Distribution coefficient log D of the compound at pH 7.4", "format": "physicochemical", "conditions": "octanol/water"}, "[19]": {"biological_target": "T1, Histamine H3 receptor", "assay": "Inverse agonist activity at rat histamine H3 receptor assessed as inhibition of R-alpha-methylhistamine induced [35S]GTPgammaS binding", "format": "functional"}, "[20]": {"biological_target": "T4, Sodium-dependent dopamine transporter", "assay": "Inhibition of dopamine transporter"}, "[21]": {"biological_target": "T3, Histamine H3 receptor", "assay": "Displacement of [3H]NAMH from human histamine H3 receptor expressed in CHO cells", "format": "cell-based"}, "[22]": {"assay": "Mutagenic activity in Salmonella Typhimurium by Ames test in presence of rat liver S9 fraction", "format": "toxicity, subcellular", "conditions": "salmonella enterica subsp. enterica serovar typhimurium"}, "[23]": {"biological_target": "T2, Sodium-dependent noradrenaline transporter", "assay": "Inhibition of recombinant human norepinephrine transporter"}, "[24]": {"assay": "Apparent permeability across human Caco2 cell membrane", "format": "ADME, cell-based", "conditions": "Caco-2"}, "[25]": {"biological_target": "Muscarinic acetylcholine receptor M2 (Homo sapiens, UniProt P08172)", "sequence (P08172 whole entry)": "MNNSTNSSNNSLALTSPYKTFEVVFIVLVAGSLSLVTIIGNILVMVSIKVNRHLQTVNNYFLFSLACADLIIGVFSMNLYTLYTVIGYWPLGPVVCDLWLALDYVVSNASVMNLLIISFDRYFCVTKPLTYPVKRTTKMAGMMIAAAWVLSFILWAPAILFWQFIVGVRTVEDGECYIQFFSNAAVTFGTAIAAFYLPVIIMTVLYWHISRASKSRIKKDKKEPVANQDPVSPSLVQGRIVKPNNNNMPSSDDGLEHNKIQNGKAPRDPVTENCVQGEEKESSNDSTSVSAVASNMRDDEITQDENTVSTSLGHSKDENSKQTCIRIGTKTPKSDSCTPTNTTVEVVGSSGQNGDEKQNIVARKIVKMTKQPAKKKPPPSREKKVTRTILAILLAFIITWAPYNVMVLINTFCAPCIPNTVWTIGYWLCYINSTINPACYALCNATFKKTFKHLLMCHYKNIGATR", "assay": "Inhibition of muscarinic M2 receptor"}, "[26]": {"tested_on": "Rattus norvegicus", "assay": "Inhibition of RAMH-induced dipsogenia in Long Evans rat administered as po 15 mins prior to RAMH challenge", "format": "functional"}, "[27]": {"assay": "Mutagenic activity in human peripheral blood lymphocytes by micronucleus test in absence metabolic activation", "format": "toxicity, cell-based", "conditions": "lymphocyte"}, "[28]": {"tested_on": "Rattus norvegicus", "assay": "Inhibition of RAMH-induced dipsogenia in ip dosed Long Evans rat administered 15 mins prior to RAMH challenge", "format": "functional"}, "[29]": {"biological_target": "Alpha-1A adrenergic receptor (Homo sapiens, UniProt P35348)", "sequence (P35348 whole entry)": "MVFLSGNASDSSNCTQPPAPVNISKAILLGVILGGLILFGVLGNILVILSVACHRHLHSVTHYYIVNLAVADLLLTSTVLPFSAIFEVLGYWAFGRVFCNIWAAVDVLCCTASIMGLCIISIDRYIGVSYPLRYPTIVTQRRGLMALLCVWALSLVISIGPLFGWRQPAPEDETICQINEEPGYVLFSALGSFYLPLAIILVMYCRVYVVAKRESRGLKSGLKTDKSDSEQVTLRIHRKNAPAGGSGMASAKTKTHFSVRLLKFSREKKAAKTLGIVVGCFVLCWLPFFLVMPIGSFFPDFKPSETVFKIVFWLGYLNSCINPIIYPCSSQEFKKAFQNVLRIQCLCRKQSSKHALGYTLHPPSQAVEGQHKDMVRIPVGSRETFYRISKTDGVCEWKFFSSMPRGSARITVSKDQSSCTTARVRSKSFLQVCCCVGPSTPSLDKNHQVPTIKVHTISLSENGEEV", "assay": "Inhibition of adrenergic alpha 1A receptor"}, "[30]": {"assay": "Drug level in rat brain at 100 mg/kg, po administered after 1 hr post dosing", "format": "ADME, organism-based", "parameters": "dose 100 mg/kg, route oral", "conditions": "read-out: Drug uptake"}, "[31]": {"biological_target": "Poly [ADP-ribose] polymerase 1 (Homo sapiens, UniProt P09874)", "sequence (P09874 whole entry)": "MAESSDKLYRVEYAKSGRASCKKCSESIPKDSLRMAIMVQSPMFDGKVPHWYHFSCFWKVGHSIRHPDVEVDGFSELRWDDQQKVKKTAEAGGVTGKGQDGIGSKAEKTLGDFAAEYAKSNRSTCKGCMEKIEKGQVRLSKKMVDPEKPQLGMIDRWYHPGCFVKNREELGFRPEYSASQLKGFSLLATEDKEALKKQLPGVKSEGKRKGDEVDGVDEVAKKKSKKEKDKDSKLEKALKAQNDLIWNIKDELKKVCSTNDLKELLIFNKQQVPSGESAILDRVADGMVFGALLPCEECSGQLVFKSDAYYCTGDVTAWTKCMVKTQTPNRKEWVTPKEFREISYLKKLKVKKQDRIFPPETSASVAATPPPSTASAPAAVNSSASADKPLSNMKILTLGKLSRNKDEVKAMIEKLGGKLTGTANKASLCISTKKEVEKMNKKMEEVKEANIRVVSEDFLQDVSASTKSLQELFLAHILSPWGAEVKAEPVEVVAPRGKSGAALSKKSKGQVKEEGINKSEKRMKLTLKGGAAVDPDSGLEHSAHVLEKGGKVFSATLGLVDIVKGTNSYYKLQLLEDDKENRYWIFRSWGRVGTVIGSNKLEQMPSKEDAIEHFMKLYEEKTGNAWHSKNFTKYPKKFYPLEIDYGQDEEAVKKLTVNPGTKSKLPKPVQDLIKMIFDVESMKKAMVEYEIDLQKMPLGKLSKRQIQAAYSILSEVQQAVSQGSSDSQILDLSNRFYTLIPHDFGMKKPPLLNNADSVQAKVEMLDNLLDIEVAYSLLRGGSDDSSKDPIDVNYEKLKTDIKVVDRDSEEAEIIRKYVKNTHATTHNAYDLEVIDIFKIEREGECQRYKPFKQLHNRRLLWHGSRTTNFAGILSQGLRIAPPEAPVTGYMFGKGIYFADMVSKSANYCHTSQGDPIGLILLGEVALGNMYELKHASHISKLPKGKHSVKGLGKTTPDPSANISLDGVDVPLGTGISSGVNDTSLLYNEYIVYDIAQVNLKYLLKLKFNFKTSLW", "assay": "Inhibition of human PARP1"}}}
{"smiles": "C[C@@H]1CCCN1CCCOc1ccc(-c2ccc(=O)[nH]n2)cc1", "note": "[IRDABISANT]", "values": [{"measurement": "IC50", "setting": "[1]", "value": 15, "unit": "µM"}, {"measurement": "Activity", "setting": "[2]", "value": "Non-toxic"}, {"measurement": "Activity", "setting": "[3]", "value": "Non-toxic"}, {"measurement": "Activity", "setting": "[4]", "value": "Non-toxic"}, {"measurement": "Activity", "setting": "[5]", "value": "Non-toxic"}, {"measurement": "Ki", "setting": "[6]", "value": 0.0072, "unit": "µM"}, {"measurement": "Activity", "setting": "[7]", "value": "Non-toxic"}, {"measurement": "Ki", "setting": "[8]", "value": 10, "unit": "µM"}, {"measurement": "EC50", "setting": "[9]", "value": 0.0011, "unit": "µM"}, {"measurement": "Activity", "setting": "[10]", "value": "Non-toxic"}, {"measurement": "Ki", "setting": "[11]", "value": 0.0027, "unit": "µM"}, {"measurement": "pKa", "setting": "[12]", "value": 10.2}, {"measurement": "solubility", "setting": "[13]", "value": "> 2000", "unit": "µg/mL"}, {"measurement": "Activity", "setting": "[14]", "value": "Non-toxic"}, {"measurement": "solubility", "setting": "[15]", "value": "> 2000", "unit": "µg/mL"}, {"measurement": "IC50", "setting": "[16]", "value": 9.4, "unit": "µM"}, {"measurement": "Activity", "setting": "[17]", "value": "Non-toxic"}, {"measurement": "logD", "setting": "[18]", "value": 0.6}, {"measurement": "EC50", "setting": "[19]", "value": 0.002, "unit": "µM"}, {"measurement": "Ki", "setting": "[20]", "value": 11, "unit": "µM"}, {"measurement": "Ki", "setting": "[21]", "value": 0.002, "unit": "µM"}, {"measurement": "Activity", "setting": "[22]", "value": "Non-toxic"}, {"measurement": "IC50", "setting": "[23]", "value": 17.5, "unit": "µM"}, {"measurement": "Papp", "setting": "[24]", "value": 13.5, "unit": "×10⁻⁶ cm/s"}, {"measurement": "Ki", "setting": "[25]", "value": 3.7, "unit": "µM"}, {"measurement": "ED50", "setting": "[26]", "value": 0.01, "unit": "mg/kg"}, {"measurement": "Activity", "setting": "[27]", "value": "Non-toxic"}, {"measurement": "ED50", "setting": "[28]", "value": 0.06, "unit": "mg/kg"}, {"measurement": "Ki", "setting": "[29]", "value": 9.8, "unit": "µM"}, {"measurement": "concentration at 1 h", "setting": "[30]", "value": 36, "unit": "µM"}, {"measurement": "IC50", "setting": "[31]", "value": "> 30", "unit": "µM"}]}
